Biological target: Adenosylhomocysteinase (Homo sapiens) (UniProt P23526)
Test: Enzyme catalytic rate kinetic constant for S-adenosyl-L-homocysteine hydrolase; Not a substrate

Chain of Adenosylhomocysteinase (Homo sapiens) (P23526 2-432 limits assumed): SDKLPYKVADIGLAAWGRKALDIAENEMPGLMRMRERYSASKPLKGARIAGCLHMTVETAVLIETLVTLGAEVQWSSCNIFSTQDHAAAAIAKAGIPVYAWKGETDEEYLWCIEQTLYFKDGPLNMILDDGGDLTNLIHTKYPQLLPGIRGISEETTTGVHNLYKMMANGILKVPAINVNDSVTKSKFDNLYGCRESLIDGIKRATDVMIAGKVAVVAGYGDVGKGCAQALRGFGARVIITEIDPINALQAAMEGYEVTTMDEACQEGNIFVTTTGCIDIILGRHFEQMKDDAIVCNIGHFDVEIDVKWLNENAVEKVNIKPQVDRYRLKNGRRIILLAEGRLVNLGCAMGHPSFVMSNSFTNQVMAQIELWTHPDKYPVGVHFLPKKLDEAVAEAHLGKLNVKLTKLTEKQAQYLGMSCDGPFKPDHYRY

In the case of `Nc1nc(O)cc(-c2cncn2C2O[C@H](CO)[C@@H](O)[C@H]2O)n1` (stereo partly specified), the k cat was “Not a substrate”.
